Experimental data reported in ChEMBL document CHEMBL1201862, “PubChem BioAssay data set” (2004).
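Protocol summary: plate cells (96-well), add compound at 5 concentrations, incubate 48 h, interpolate endpoints linearly. GI50 marks 50% less growth.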 Active and inactive are the calls of the source. No stated cut-off is given here; in the data, active = GI50 up to about 1.1 µM and inactive = higher.

Columns and labels:
Assay in all cases: NCI-60 cell line screen, 48 h
KM12 = system: KM12
UACC-257 = system: UACC-257
LOX IMVI = system: LOX IMVI
OVCAR-3 = system: OVCAR-3
SK-MEL-2 = system: SK-MEL-2
EKVX = system: EKVX
DU-145 = system: DU-145
SF-295 = system: SF-295
U-251 = system: U-251
HOP-62 = system: HOP-62
NCI/ADR-RES = system: NCI/ADR-RES
HT-29 = system: HT-29
T47D = system: T47D
RXF 393 = system: RXF 393
A549 = system: A549
HOP-92 = system: HOP-92
SK-MEL-5 = system: SK-MEL-5
SN12C = system: SN12C
ACHN = system: ACHN
NCI-H460 = system: NCI-H460

Measured: GI50

C/C(=N/NC(=S)N(C)C)c1ccccc1O
inactive: KM12 8.85 µM | UACC-257 17.1 µM | LOX IMVI 4.86 µM | OVCAR-3 2.97 µM | SK-MEL-2 11.9 µM | EKVX 29.1 µM | DU-145 18.9 µM | SF-295 11.8 µM | U-251 6.35 µM | HOP-62 5.81 µM | NCI/ADR-RES 3.53 µM | HT-29 3.26 µM | T47D 14.5 µM | RXF 393 23 µM | A549 7.87 µM | HOP-92 > 75.2 µM | SK-MEL-5 7.67 µM | SN12C 14.4 µM | ACHN 6.31 µM | NCI-H460 2.26 µM

COC(=O)c1c(C)nc(C)c(NO)c1-c1ccccc1C(F)(F)F
inactive: KM12 34.7 µM | UACC-257 22 µM | LOX IMVI 38.3 µM | OVCAR-3 16.7 µM | SK-MEL-2 53.8 µM | EKVX 83 µM | DU-145 32.8 µM | SF-295 > 100 µM | U-251 > 100 µM | HOP-62 > 100 µM | NCI/ADR-RES 18.2 µM | HT-29 18.4 µM | T47D 28 µM | RXF 393 16.7 µM | A549 > 100 µM | HOP-92 14.2 µM | SK-MEL-5 41.7 µM | SN12C 27 µM | ACHN 30.8 µM | NCI-H460 > 100 µM

Cc1nc2ccccc2nc1-c1ccc(/N=[N+](\[O-])c2ccc(-c3nc4ccccc4nc3C)cc2)cc1
inactive: KM12 > 100 µM | UACC-257 > 100 µM | LOX IMVI > 100 µM | OVCAR-3 > 100 µM | SK-MEL-2 > 68.1 µM | EKVX > 100 µM | DU-145 > 94.4 µM | SF-295 59.6 µM | U-251 27.5 µM | HOP-62 23.9 µM | NCI/ADR-RES > 64.9 µM | HT-29 > 100 µM | T47D > 100 µM | RXF 393 28.8 µM | A549 > 100 µM | HOP-92 > 39.5 µM | SK-MEL-5 > 96.4 µM | SN12C > 92.7 µM | ACHN > 55.7 µM | NCI-H460 > 100 µM

CC1=CC(=O)c2ccccc2C1=O [MENADIONE]
inactive: KM12 10.7 µM | UACC-257 4.17 µM | LOX IMVI 2.04 µM | OVCAR-3 11.1 µM | SK-MEL-2 8.3 µM | EKVX 17.2 µM | DU-145 15.9 µM | SF-295 16.5 µM | U-251 13.4 µM | HOP-62 16.1 µM | NCI/ADR-RES 11.9 µM | HT-29 17.9 µM | T47D 2.01 µM | RXF 393 13.4 µM | A549 18.5 µM | HOP-92 1.55 µM | SK-MEL-5 2.18 µM | SN12C 12.4 µM | ACHN 3.36 µM | NCI-H460 11.5 µM
